Experimental data published in patent publication US5739158A, “Nitrogen-containing cyclohetero cycloalkylaminoaryl derivatives for CNS disorders” (The United States of America as represented by the …, priority 1992, dated 1998).

Assays:
[1] = test system: apomorphine-induced climbing; experiment: Blockage of apomorphine-induced climbing; assay type: in vivo, mouse (Swiss-Webster); conditions: 10 mg/kg; apomorphine 2 mg/kg s.c.; i.p. or s.c. pretreatment
Experimental: Compounds of the invention were evaluated for their ability to block apomorphine-induced climbing. The evaluation of the compounds followed the method outlined by Protais [Psychopharmcol., 50, 1-6, 1976]. Swiss-Webstermice, weighing 20-25 g, are pretreated with the compounds of the invention by i.p. or s.c. administration at various times before 2 mg/kg apomorphine is administered s.c. in a volume of 1 ml/kg. All test compounds are administered in a volume of 10 ml/kg. Mice are rated at 10 and 20 minutes after apomorphine administration using the following rating scale: (0) forepaws on the floor, (1) forefeet holding the bars, and (2) four paws holding bars. Dose-response curves are analyzed by a computerized Finney assay [Statistical Methods in Biological Assays, 2nd Edn., Hatner Pub. Co., New York (1964)].

sigma receptors = target: T1, sigma receptors (Cavia porcellus, UniProt Q60492); experiment: Radioreceptor assay in guinea pig brain homogenate (P2 membranes), [3H]-(+)-3-PPP; assay type: binding
T1 construct: crude synaptosomal (P2) membrane fraction of guinea pig brain for sigma receptors; tissue Pel-Freeze, Rogers, Ak; host or cells: guinea pig brain minus cerebellum, crude synaptosomal (P2) membranes

sigma receptor = target: T2, sigma receptor (Rattus norvegicus, UniProt Q9R0C9); experiment: Radioreceptor assay in rat brain homogenate, displacement of [3H]-(+)-3-PPP; assay type: binding; conditions: rat brain membranes; 2 nM [3H]-(+)-3-PPP; 1 hr, room temperature; units ± SEM; read-out: Ki apparent
T2 construct: Brains from male Sprague-Dawley rats were homogenized; from tissue; host or cells: rat brain crude membranes (male Sprague-Dawley)
Experimental: Acad. Sci., 83, 8784-8788, 1986] to determine the relative potency of the compounds interacting with the sigma receptor. To determine the effects of the compounds in a sigma receptor assay, crude membrane preparations were prepared as follows. Brains from male Sprague-Dawley rats were homogenized in 10 volumes (wt/vol) of 0.32M sucrose, using a Polytron grinder. The homogenate was centrifuged at 900×G for 10 minutes at 4° C. The supernatant was collected and centrifuged at 22,000×g for 20 minutes at 4° C. The pellet was resuspended in 10 volumes of 50 mM Tris/HCl buffer (pH 7.4) and centrifuged at 22,000×g for 20 minutes at 4° C. The pellet was resuspended in 5 mM Tris/HCl buffer (pH 7.4) to give a final concentration of 250 mg/ml of the crude material. Incubation tubes were prepared in triplicate and contained 0.1 ml of tissue suspension, 2 nM of [^3 H]-(+)-1-propyl-3-(3-hydroxyphenyl)piperidine {[^3 H]-3-(+)-PPP}, and varying concentrations of the displacing ligand (0.1-1000 nM) in a final volume of 0.5 ml. After a 1 hr incubation at room temperature, the contents of the test tubes were filtered through GS filter paper which had been presoaked for at least 2 hours in 0.05% polyethyleneamine. The test tubes were rinsed three times with Tris/HCl buffer. Radioactivity on the filters was determined and […] were calculated from inhibition curves using the method of Cheng and Prusoff [Biochem. Pharmacol., 22, 3099-3108, 1973].

[2] = test system: CA1 region of the hippocampus; experiment: Forebrain ischemia assay (bilateral carotid occlusion); assay type: in vivo, Mongolian gerbil; conditions: 50 mg/kg i.p. 30 minutes prior to carotid occlusion (15 min); 7 days; p<0.01
Experimental: Male Mongolian gerbils, 50-70 gm, were used as subjects. Compound No. 8 (50 mg/kg) was injected i.p. 30 minutes prior to carotid occlusion into 6 gerbils. In preparation for surgical procedures, the animals were lightly anesthetized with halothane and placed upside down on a heated pad with their snout within a nosecone. Nitrous oxide (70%): oxygen (30%) plus 0.5% halothane was circulated through the nosecone to provide continuous anesthesia throughout the surgical procedure. A midline incision was made in the neck and the carotid arteries were exposed. A length of suture thread was placed under each carotid. The thread was then tightened around each carotid and pressure applied to the thread to insure flow as occluded. Flow was occluded for 15 minutes and then the thread was removed. The carotids were visually inspected to confirm that reflow had occurred. The wound was then closed with autoclips and the gerbils allowed to recover. Following surgery, the gerbils were kept alive for 7 days. […] The degree of lesion in the CA1 region of the hippocampus was quantified by counting the pyramidal cell bodies in a 0.5 mm length of CA1 on the section corresponding to P 1.7 mm in the atlas of Loskota, Lnax and Verity [W. J. Loskota et al, A Stereotaxic Atlas of the Mongolian Gerbil Brain, Ann Arbor Science Publishers, Ann Arber, p. […]

T2 sequence (Q9R0C9 whole entry): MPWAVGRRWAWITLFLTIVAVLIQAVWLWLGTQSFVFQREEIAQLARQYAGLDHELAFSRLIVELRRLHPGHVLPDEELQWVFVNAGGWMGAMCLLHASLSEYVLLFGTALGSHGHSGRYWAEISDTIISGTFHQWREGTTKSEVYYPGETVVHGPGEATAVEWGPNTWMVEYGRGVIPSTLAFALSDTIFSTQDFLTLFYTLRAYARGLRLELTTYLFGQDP
T1 sequence (Q60492 whole entry): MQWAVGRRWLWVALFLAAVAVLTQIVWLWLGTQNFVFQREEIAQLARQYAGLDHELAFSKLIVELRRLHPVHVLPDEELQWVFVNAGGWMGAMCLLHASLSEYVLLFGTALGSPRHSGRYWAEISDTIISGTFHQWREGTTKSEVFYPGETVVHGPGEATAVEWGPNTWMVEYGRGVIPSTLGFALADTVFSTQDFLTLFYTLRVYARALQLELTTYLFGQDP

CN(CCc1ccc(Cl)c(Cl)c1)[C@@H]1CCCC[C@@H]1N1CCCC1 [Compound No. 8, 1R,2S-(+)-cis-N-[2-(3,4-dichlorophenyl)ethyl]-N-methyl-2-(1-pyrrolidinyl)cyclohexylamine] was tested, and the “Blockage of apomorphine-induced climbing” value [1] was “completely blocked”, the Ki (sigma receptors) was 0.006 ± 0.003 µM and the Ki (sigma receptor) was 0.02 ± 0.001 µM. The “Cell loss in CA1 region of hippocampus” value [2] was “significantly reduced”.
